Like-named read-outs stand apart in the source and are kept apart here.
What was measured:
recombinant human DHODH = recombinant human DHODH (Homo sapiens, UniProt Q02127); assay: Inhibition assay of DHODH activity (DHO-driven reduction of DCIP); format: biochemical
Experimental: Inhibition of recombinant human DHODH was assayed by the dihydroorotate (DHO) driven reduction of dichloroindophenol (DCIP), (Bruneau et al., 1998). The standard assay mixture contained 0.4 μg/mL recombinant protein, 50 mM Tris pH8, 100 μM decylubiquinone, 1 mM KCN, 200 μM DCIP and 0.1% Triton X-100. Inhibitory compounds were added at 10 different concentrations and the enzyme reaction initiated by the addition of 500 μM DHO. The reaction was allowed to continue for 10 minutes before the reduction of DCIP was measured in a microtiterplate reader as a decrease in absorbance at 650 nm. The IC50 values (concentration of inhibitor required for 50% inhibition) for each compound were calculated from the obtained dose response curves.

[1] = test system: human T lymphoblast cell line (Jurkat); assay: Inhibition of T-cell proliferation (3H-TdR incorporation); format: cell-based; conditions: Jurkat cells; for IC50: 3 days, read-out: Inhibition of T-cell proliferation in vitro. IC50
Experimental: Inhibition of T cell proliferation was studied in a functional assay. A human T lymphoblast cell line (Jurkat) was cultured in the presence and absence of DHODH inhibiting compounds. Jurkat cells were seeded in microtiterplates at a concentration of 5×10^5/mL in RPMI 1640 growth media supplemented with ultraglutamin, 10% fetal calf serum, 1 mM sodium pyruvat, 10 mM HEPES and 0.1 mg/mL gentamycin. A dilution series of ten different concentrations of inhibitor was added to the wells and the plates were kept in a cell incubator for 3 days. At the beginning of the last 4 hours period, the cultures were pulsed with 10 μl/well 0.1Ci/mmol ^3H-TdR and then harvested on filter papers and counted with a β-counter. The IC50 values for each compound were calculated from the obtained dose response curves. Adding 50 μM uridine to the wells monitored the specificity for the mechanism. This reverses the antiproliferative effect by bypassing the DHODH enzyme using an external source of pyrimidine.
Inhibition of T cell proliferation was studied in a functional assay. Table 1 exemplifies the invention, without limiting the scope thereof. A human T lymphoblast cell line (Jurkat) was cultured in the presence of the compound to be screened. The IC50 value for each compound was calculated from the dose response curve. Adding uridine was used to monitor the specificity of the DHODH mechanism.

[2] = Determination of pharmacokinetic properties in the mouse (cassette dosing); format: in vivo; conditions: female, SJL/N Tac, plasma, iv, i.v. administration, nominal dose 1 mg/kg/compound
Experimental: Female mice (SJL/N Tac) were given a single intravenous or oral dose of a mixture of 4 or 6 compounds per cassette (nominal dose: 1 mg/kg/compound). The test items were formulated in physiological saline/5% Cremophor® to a final concentration of each 0.1 mg/mL. Blood samples were collected from vena cava (terminal bleed) into sodium heparinised tubes. The dose formulations and plasma concentrations of each compound were determined by LC-MS/MS. The pharmacokinetic parameters were determined by non-compartmental analysis using WinNonlin Professional (version 4.0.1).
The clearance (CL) and half-life (t1/2) of representative compounds in the mouse following i.v. administration are shown in Table 2. Table 2 exemplifies the invention, without limiting the scope thereof.

Sequence of recombinant human DHODH (Q02127 whole entry): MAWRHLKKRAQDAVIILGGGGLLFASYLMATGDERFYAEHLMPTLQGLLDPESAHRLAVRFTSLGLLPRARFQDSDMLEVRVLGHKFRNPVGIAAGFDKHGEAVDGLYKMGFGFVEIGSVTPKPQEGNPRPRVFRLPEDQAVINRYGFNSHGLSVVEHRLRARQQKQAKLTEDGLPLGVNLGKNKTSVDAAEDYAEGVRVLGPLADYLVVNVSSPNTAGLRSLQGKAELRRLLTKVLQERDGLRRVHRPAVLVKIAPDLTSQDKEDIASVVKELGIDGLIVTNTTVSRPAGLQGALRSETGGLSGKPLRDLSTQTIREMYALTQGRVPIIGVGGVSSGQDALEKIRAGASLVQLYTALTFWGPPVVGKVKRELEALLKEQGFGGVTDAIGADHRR

Row | Structure (SMILES) | IC50 ([1]; Homo sapiens, 72 h) [µM] | clearance [2] [L/h/kg] | half-life [2] [h] | further results
1 | COc1ccc(OC)c(COc2ccc(O)c(C(=O)O)c2)c1 [5-(2,5-dimethoxy-benzyloxy)-2-hydroxy-benzoic acid] | – | – | – | DHODH inhibition (in words) (recombinant human DHODH): inactive
2 | CCCNc1ccccc1Sc1ccc(NC(=O)CC)c(C(=O)O)c1 [Compound AA, 2-propionylamino-5-(2-propylamino-phenylsulfanyl)-benzoic acid] | 0.04 | – | – | –
3 | CCCN(CCC)c1ccccc1Oc1ccc(NC(=O)CC)c(C(=O)O)c1 [Compound AB, 5-(2-dipropylamino-phenoxy)-2-propionylamino-benzioc acid] | – | – | – | IC50 [1]: 0.15 µM
4 | CCC(=O)Nc1ccc(OCc2ccccc2OC(F)(F)F)cc1C(=O)O [Compound AC, 2-propionylamino-5-(2-trifluoromethoxy-benzyloxy)-benzoic acid] | 0.3 | – | – | –
5 | CCC(=O)Nc1ccc(COc2ccccc2OC(F)(F)F)cc1C(=O)O [Compound AD, 2-propionylamino-5-(2-trifluoromethoxy-phenoxymethyl)-benzoic acid] | 0.24 | – | – | –
6 | CCC(=O)Nc1ccc(Sc2ccccc2OC(F)(F)F)cc1C(=O)O [Compound AE, 2-propionylamino-5-(2-trifluoromethoxy-phenylsulfanyl)-benzioc acid] | – | – | – | IC50 [1]: 0.39 µM
7 | CC(=O)Nc1ccc(CCc2ccccc2)cc1C(=O)O [Compound AF, 2-Acetylamino-5-phenethyl-benzoic acid, reference compound] | – | 0.97 | 0.29 | –
8 | CCC(=O)Nc1ccc(/C=C/c2ccccc2)cc1C(=O)O [Compound AG, 2-Propionylamino-5-[(E)-styryl]-benzoic acid] | – | 0.12 | 10 | –
9 | CCC(=O)Nc1ccc(Cc2ccccc2)cc1C(=O)O [Compound AH, 5-Benzyl-2-propionylamino-benzoic acid] | – | 0.018 | 6.6 | –
10 | COc1ccc(OC)c(COc2ccc(NC(C)=O)c(C(=O)O)c2)c1 [Compound G, 2-acetylamino-5-(2,5-dimethoxy-benzyloxy)-benzoic acid, reference compound] | 6.2 | 0.71 | 0.3 | inhibitory effect on T-cell proliferation (in words) [1]: only a weak inhibitory effect
11 | COc1ccc(OC)c(CCc2ccc(NC(C)=O)c(C(=O)O)c2)c1 [Compound H, 2-Acetylamino-5-[2-(2,5dimethoxy-phenyl)-ethyl]-benzoic acid, reference compound] | 12 | – | – | inhibitory effect on T-cell proliferation (in words) [1]: very weak inhibitory effect
12 | CCC(=O)Nc1ccc(CCc2ccccc2C(F)(F)F)cc1C(=O)O [Compound J, 2-propionylamino-5-[2-(2-trifluoromethyl-phenyl)-ethyl]-benzoic acid, reference compound] | 2.9 | – | – | inhibitory effect on T-cell proliferation (in words) [1]: weak antiproliferative effect
13 | CCC(=O)Nc1ccc(/C=C/c2ccccc2C(F)(F)F)cc1C(=O)O [Compound Q] | – | – | – | IC50 [1]: 0.11 µM
14 | CCC(=O)Nc1ccc(/C=C/c2cccc(C(F)(F)F)c2)cc1C(=O)O [Compound R] | – | – | – | IC50 [1]: 0.45 µM

The next lines start with results.

Row | IC50 ([1]; Homo sapiens, 72 h) [µM] | clearance [2] [L/h/kg] | half-life [2] [h] | Structure (SMILES) | further results
15 | 0.79 | 0.07 | 2.2 | CCC(=O)Nc1ccc(NCc2ccccc2C(F)(F)F)cc1C(=O)O [Compound K, 2-propionylamino-5-(2-trifluoromethyl-benzylamino)-benzoic acid] | –
16 | 0.78 | 0.015 | 3.1 | CCC(=O)Nc1ccc(Oc2ccccc2C(F)(F)F)cc1C(=O)O [Compound L, 2-propionylamino-5-(2-trifluoromethyl-phenoxy)-benzoic acid] | –
17 | 0.33 | 0.11 | 4.9 | CCC(=O)Nc1ccc(OCc2ccccc2C(F)(F)F)cc1C(=O)O [Compound M, 2-propionylamino-5-(2-trifluoromethyl-benzyloxy)-benzoic acid] | –
18 | 0.52 | 0.14 | 1.5 | CCC(=O)Nc1ccc(COc2ccccc2C(F)(F)F)cc1C(=O)O [Compound N, 2-propionylamino-5-(2-trifluoromethyl-phenoxymethyl)-benzoic acid] | –
19 | 0.25 | 0.033 | 4.6 | CCC(=O)Nc1ccc(Sc2ccccc2C(F)(F)F)cc1C(=O)O [Compound O, 2-propionylamino-5-(2-trifluoromethyl-phenylsulfanyl)-benzoic acid] | –
20 | 0.21 | – | – | CCC(=O)Nc1ccc(CSc2ccccc2C(F)(F)F)cc1C(=O)O [Compound P, 2-propionylamino-5-(2-trifluoromethyl-phenylsulfanylmethyl)-benzoic acid] | –
21 | 0.14 | – | – | CCC(=O)Nc1ccc(Oc2cc(C(F)(F)F)cc(C(F)(F)F)c2)cc1C(=O)O [Compound S, 5-(3,5-bis-trifluoromethyl-phenoxy)-2-propionylamino-benzoic acid] | –
22 | 0.24 | – | – | CCCNc1ccccc1Oc1ccc(NC(=O)CC)c(C(=O)O)c1 [Compound T, 2-propionylamino-5-(2-propylamino-phenoxy)-benzoic acid] | –
23 | 0.11 | – | – | CCCNc1ccccc1COc1ccc(NC(=O)CC)c(C(=O)O)c1 [Compound U, 2-propionylamino-5-(2-propylamino-benzyloxy)-benzoic acid] | –

— patent US7074831B2, “Compounds, methods for their preparation and use thereof” (Active Biotech AB, priority 2004, dated 2006)
